Experimental data reported in patent publication US10383338B2, “Compositions and methods for making and using hydrolytic enzymes for degrading polysaccharides made by foodborne pathogenic bacteria” (University of Wyoming, priority 2014, dated 2019).

Columns and labels:
[1] = tested on: L. monocytogenes; format: cell-based; conditions: hydrogen peroxide 200 mM, benzalkonium chloride 100 ppm; 10 min, room temperature
Method: Here, the role of L. monocytogenes EPS in providing tolerance to disinfection and desiccation was evaluated. […] To distinguish between the contribution of EPS versus EPS-independent c-di-GMP-responsive agents, included in the tests were the ΔpdeB/C/D ΔpssC mutant characterized by elevated intracellular c-di-GMP levels but defective in EPS production.
Cultures were grown in HTM with 3% glucose at 37° C. for 24 h, at which point small uniform clumps are formed by the ΔpdeB/C/D strain. Aliquots (250 μl; 10^8 cfu/ml) of these cultures were mixed with disinfectants at 1:1 vol ratios in small glass tubes that also contained 0.1 g of acid washed glass beads (Sigma Life Sciences). Following a 10-min exposure to disinfectants at room temperature, D/E neutralizing broth (500 μl; Difco) was added. Samples were vigorously vortexed (for 5 min) and clumps of the ΔpdeB/C/D strain were dispersed due to the action of the glass beads. Serial dilutions were plated on BHI agar and colonies were counted following a 48-h incubation at 37° C.

[2] = target: MBP-GGDEFpssE; test: Equilibrium dialysis assay of c-di-GMP binding by the PssE receptor; parameters: species or system L. monocytogenes
Description: (§1) To test the prediction that the PssE protein acts as a c-di-GMP receptor, its GGDEF domain (“GGDEF” disclosed as SEQ ID NO: 3) containing the I-site as an MBP fusion (MBP-GGDEFpssE) (“GGDEF” disclosed as SEQ ID NO: 3) was overexpressed, and this protein was purified (FIG. 5A) and analyzed for its ability to bind c-di-GMP in vitro using equilibrium dialysis. […] This value falls within the range of physiologically relevant intracellular c-di-GMP concentrations measured in other bacteria that are believed to be in the submicromolar to low micromolar range. […] Therefore, PssE is a bonafide c-di-GMP receptor that is predicted to transfer the c-di-GMP signal to activate synthesis of the listerial Pss EPS.
For purification of MBP::PdeC and MBP::GGDEFpssE fusions (“GGDEF” disclosed as SEQ ID NO: 3), IPTG (final concentration, 0.2 mM) was added to exponentially (A600, 0.6-0.8) growing E. coli DH5α containing appropriate plasmids. After 2-h induction, cells were collected by centrifugation. […]
(§2) Equilibrium dialysis experiments were performed as previously described. […] The nucleotide concentrations were quantified by HPLC. Binding constants were calculated by the GraphPad Prism software, version 4.03 (GraphPad Software, San Diego, Calif.) using a nonlinear regression model.

[3] = target: T1, Listeria monocytogenes PssE (Lmo0531), GGDEF domain (residues 107-285) containing the I-site, as MBP fusion (MBP::GGDEFpssE) (Listeria monocytogenes, UniProt Q8Y9J6); test: Equilibrium dialysis of c-di-GMP binding to the PssE receptor (MBP-GGDEFpssE)
T1 construct: equilibrium dialysis
T1 sequence (Q8Y9J6 entry or part of it): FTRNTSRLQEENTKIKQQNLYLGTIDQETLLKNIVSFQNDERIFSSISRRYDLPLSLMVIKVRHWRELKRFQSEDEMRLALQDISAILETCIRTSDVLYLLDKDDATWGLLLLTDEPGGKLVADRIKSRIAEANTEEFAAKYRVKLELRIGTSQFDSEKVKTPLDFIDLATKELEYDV
Description: FIGS. 5A-5B: In vitro assay of c-di-GMP binding by the PssE receptor. […] The GGDEF domain of PssE (residues 107-285) (“GGDEF” disclosed as SEQ ID NO: 3) containing the putative I-site was fused downstream of MBP, MBP::GGDEFpssE (“GGDEF” disclosed as SEQ ID NO: 3), and used in c-di-GMP binding assays. […] Shown is the dependence of the ratio of bound cdi-GMP per protein in the dialysis chamber, where protein alone was loaded, versus concentration of free c-di-GMP at equilibrium.
as §1
For purification of MBP::PdeC and MBP::GGDEFpssE fusions (“GGDEF” disclosed as SEQ ID NO: 3), IPTG (final concentration, 0.2 mM) was added to exponentially (A600, 0.6-0.8) growing E. coli DH5α containing appropriate plasmids. After 2-h induction, cells were collected by centrifugation. Cell pellets were resuspended in a buffer containing 200 mM NaCl, 0.5 mM EDTA, 5 mM MgCl2, 20 mM Tris-HCl (pH 7.6), and 5% glycerol that also contained protease inhibitors. […]
as §2

[4] = Solubility of listerial EPS preparations; format: physicochemical
Description: Considering that chitin, a polymer of β-1,4-linked N-acetylglucosamine, is also insoluble, but chitosan, which is obtained from chitin by N-deacetylation, is soluble in dilute acid, ManNAc-Gal EPS may also be made soluble by N-deacetylation. […] To identify the sugars belonging to the anomeric signals, a series of 2-D NMR spectra was acquired. COSY and TOCSY spectra were used to assign the proton chemical shifts, and an HSQC spectrum was obtained to assign the carbon chemical shifts of the monosaccharide residues present in EPS-N. The residues and their linkage positions were identified from the proton and carbon chemical shifts. A NOESY spectrum was used to determine the monosaccharide sequence. The spectra clearly identified one of the anomeric peaks as belonging to a terminal α-galactopyranose (α-Galp) residue (Table 3).
N-deacetylation was performed to obtain soluble EPS material for NMR studies. The insoluble EPS sample was suspended in 300 μl of 50% NaOH and heated to 80° C. for 1 h. After cooling to room temperature, the sample was diluted with 1 ml of water and acidified with glacial acetic acid (final pH˜4-5). The sample was dialyzed against running deionized water for 36 h using a 3,500 Da regenerated cellulose membrane and lyophilized. This material was designated ‘EPS-N’. EPS-N was dissolved in 5 ml of 0.4 M HCl and heated at 110° C. for 2 h for partial hydrolysis. […]

[5] = Release of soluble carbohydrates from purified insoluble EPS (anthrone assay); format: biochemical, L. monocytogenes; conditions: 32 μg ml^−1 final concentration; ethanol precipitated EPS
Method: Next, purified insoluble ManNAc-Gal EPS was treated with PssZ and PssZ E72Q.
Total carbohydrates were determined using an anthrone assay. Dried EPS samples were transferred to 0.4 ml of water and mixed with an ethyl acetate solution containing anthrone reagent (2% w/v). Then, 1 ml of concentrated sulfuric acid was added to the mixture for color development. Samples were read at a wavelength of 620 nm, and glucose was used as a standard to estimate carbohydrate levels in the samples. Finally, dried EPS samples were sent to the Complex Carbohydrate Research Center (Athens, Ga., USA) for determination of monosaccharide composition, linkage, and NMR analysis.
The EPS hydrolytic activities of PssZ and PssZ E72Q were assessed by the ability of these proteins: (i) to prevent aggregation of the growing ΔpdeB/C/D strain in HTM/G medium, (ii) to disperse nongrowing ΔpdeB/C/D aggregates; and (iii) to release soluble carbohydrates from the purified insoluble EPS fibers. (i) Different concentrations (0.13 and 1.3 μg ml^−1) of the purified PssZ and PssZ E72Q proteins were added at the beginning of strain incubation. (ii) Aggregates were washed twice and resuspended in HTM salts-MOPS medium. Proteins were added to 1 ml of aggregate suspension (32 μg ml^−1, final concentration), and samples were incubated at 30° C. with gentle shaking. […]

[6] = tested on: washed aggregates of strain ΔpdeB/C/D; test: Dispersal of preformed cell aggregates; format: cell-based, L. monocytogenes
[7] = tested on: ΔpdeB/C/D strain; test: Cell aggregation assay with added recombinant protein (prevention of aggregation of the growing strain); format: cell-based, L. monocytogenes; conditions: added to inoculum, HTM/G, 30° C., 24 h
[8] = Stability of PssZ hydrolytic activity on incubation; format: physicochemical; conditions: 3 day incubation at 30° C.
Description: In addition to biosynthesis proteins, the ManNAc-Gal EPS-specific glycosylhydrolase was identified and characterized. PssZ belongs to the GH8 family, whose members cleave β1-4 linkages through an inverting mechanism wherein carboxylate containing amino acid residues (i.e., Glu and Asp) perform the hydrolysis of glycosidic bonds. A conserved Glu residue present in the presumed catalytic site of PssZ was identified to be important for hydrolytic activity of PssZ (FIG. 17). The PssZ E72Q mutation largely, but not completely, abolished hydrolytic activity. […] A similar observation was reported for BcsZ, i.e., no hydrolytic activity was detected on carboxymethylcellulose in solution, whereas activity was shown on an agar plate containing carboxymethylcellulose. […] Given its relative stability, PssZ can be used for dispersing listerial EPS aggregates in food storage or processing plants, which would make listeria more susceptible to disinfectants. According to the results observed, listerial EPS-embedded aggregates are several orders of magnitude more tolerant to commonly used disinfectants than planktonic cells.

## benzalkonium chloride
[1]
  tolerance of ΔpdeB/C/D mutant compared to wild type or ΔpdeB/C/D ΔpssC mutant: approximately 10^2 fold

## Nc1nc2c(ncn2[C@@H]2O[C@@H]3COP(=O)(O)O[C@H]4[C@@H](O)[C@H](n5cnc6c(=O)[nH]c(N)nc65)O[C@@H]4COP(=O)(O)O[C@H]3[C@H]2O)c(=O)[nH]1 [c-di-GMP, Cyclic dimeric GMP]
[2]; 25 h, room temperature, protein 20 μM, c-di-GMP 1 to 50 μM, read-out: apparent Kd
  Kd: 790 ± 170 nM
[2]; nonlinear regression
  binding capacity, Bmax: 2.03±0.12 μM c-di-GMP (μM protein)^−1
[3]
  Kd: 790 ± 170 nM
[3]; equilibrium dialysis, 25 h at room temperature
  Bmax (binding capacity): 2.03±0.12 μM c-di-GMP (μM protein)^−1
[3]; from Bmax
  c-di-GMP molecules bound per PssE molecule at saturation: two

## OO [hydrogen peroxide]
[1]
  tolerance of ΔpdeB/C/D mutant compared to wild type or ΔpdeB/C/D ΔpssC mutant: approximately 10^2 fold

## {4)-β-ManpNAc-(1-4)-[α-Galp-(1-6)]-β-ManpNAc-(1-} [ManNAc-Gal EPS]
[4]
  solubility of native material: completely insoluble

B1: PssZ: L. monocytogenes ManNAc-Gal EPS-specific glycosylhydrolase; SEQ ID NO: 1, purified fragment SEQ ID NO: 2 (protein)
chain: RPESKKTVSAPKETTPTSTSVQTYVKENYTAKNGLIMDYKNTEEPHYLAESIGLYMEYLVEVNDSKTFQKQVNHLEKYFIAEDNFIKWEATDSTTTNAIVDDFRITEALYQASEKFSFPSYKKMADKFLTNTKKYSAEQGVPVDFYDFVHKKKADTLHLSYLNIQAMQQINYRDKAYLPIQTINADPFFTEVFQNGQFKFADQKEVNMIDQMLIAIAYYDENGDIEPNFDNFLQTELASKGKIYARYQRETKKPSSENESTAVYAFLTQYFNKTNQAKNGKITKELLEKMDTSNPETTHFFDYINKEITLKK
modifications: His6 tag; Listeria monocytogenes
[5]
  hydrolytic activity on purified insoluble EPS (anthrone assay): did not detect any PssZ activity
[6]; 32 μg ml^−1 final concentration, 6 h, 30° C., HTM salts without carbon source
  dispersal of preformed cell aggregates: dispersed cell aggregates almost completely
[6]; supernatants after treatment of cell aggregates
  presence of reducing sugars in supernatants after treatment of cell aggregates: able to be detected
[7]; 0.13 μg ml^−1 final concentration
  inhibition of cell aggregation: inhibited aggregation partially
[7]; 1.3 μg ml^−1 final concentration
  inhibition of cell aggregation: inhibited it completely
[8]
  hydrolytic activity retained after incubation: retains partial hydrolytic activity
